Laboratory results: patent US20110183969A1, “ANTIFUNGAL COMBINATION THERAPY” (priority 2008, published 2011)

What was measured:
Assay in all cases: MIC (YAG medium)
Format in all cases: cell-based
Aspergillus flavus = conditions: YAG medium, MIC banded into grades; for MIC: Aspergillus flavus, read-out: MIC A. flavus (grade)
Description: (§1) Between 1 and 5 mgs of compound were accurately weighed out into a sterile Eppendorf tube. The compound was dissolved in DMSO to give a solution containing 5 mg/mL. Tubes were stored at −20° C. until required.
(§2) On the day of testing thawed solutions were vortex mixed to ensure homogeneity. 30 μL of solution was removed and added to 570 μL of sterile water in a separate sterile Eppendorf The thoroughly mixed solution was used to prepare a series of doubling dilutions in water, in a deep well plate. […] replicate plates were prepared using a Minitrak by aspirating 20 μL from each well into eleven clear polystyrene 96 well plates.
(§3) Spores of Aspergillus spp. (Aspergillus fumigatus [two strains], Aspergillus terreus [two strains], Aspergillus niger and Aspergillus flavus) were harvested from cultures grown on Sabarauds agar for 5 days, and resuspended in PBS/Tween 80 to approx 1×10^7 cfu/mL. Other filamentous fungi (Absidia corymbifera, Fusarium solani, Rhizomucor, Scedosporium spp., Trichophyton spp.), were grown on Sabarauds agar for 2-10 days and spores/hyphae resuspended in PBS/Tween to give approx 1×10^7 cfu/mL. Candida species (Candida albicans, Candida glabrata, Candida krusei, Candida parapsilosis and Candida tropicalis) were grown on Sabarauds agar, cells were harvested from the agar using a sterile loop and resuspended in PBS/Tween 80 to approx 1×10^6 cfu/mL. Each organism suspension was diluted in RPMI medium, containing 2% glucose and 0.135 M MOPS buffer (pH 7.0) to 0.5−2×10^4 cfu/mL for Aspergillus spp. and other filamentous fungi and 0.5-2×10^3 cfu/mL for yeast. 80 μL of an organism suspension was added to each well of the plate containing drug dilutions.
(§4) This produced MIC plates with a drug range 50-0.05 mg/L and organism inocula of 1-2×10^4 cfu/mL for Aspergillus spp. and other filamentous fungi and 1-2×10^3 cfu/mL for yeasts. All plates were incubated for 24-48 hrs at 35° C. Growth was assessed by monitoring the optical density at 485 nm for each well. The MIC of a compound is the lowest drug concentration that inhibits growth of an organism by >80% compared with a drug free control. MICs are recorded as mg/L. Other growth media can be used for susceptibility testing, and the activity of the described compounds can also be assessed in a medium comprising 1% glucose, 1% ammonium chloride and 0.5% yeast extract (YAG medium). To perform MIC tests in this medium, dilutions of compounds are prepared in microtitre plates as described above. Fungal strains to be tested are grown and harvested in an identical manner to that described above, each organism suspension is then diluted in YAG medium to 0.5-2×10^4 cfu/mL for Aspergillus spp. and other filamentous fungi and 0.5-2×10^3 cfu/mL for yeast. 80 μL of an organism suspension was added to each well of the plate containing drug dilutions. This produced MIC plates with a drug range 50-0.05 mg/L and organism inocula of 1-2×10^4 cfu/mL for Aspergillus spp. and other filamentous fungi and 1-2×10^3 cfu/mL for yeasts. All plates were incubated for 24 hrs at 35° C. Growth was assessed by monitoring the optical density at 485 nm for each well. The MIC of a compound is the lowest drug concentration that inhibits growth of an organism by >70% compared with a drug free control. MICs are recorded as mg/L. In cases where the MIC of an organism is […] mg/L the MIC is repeated using a concentration range of 0.5-0.0005 mg/L. MIC tests in YAG medium have more clear-cut endpoints and have slightly lower MICs than those performed in RPMI medium.
(§5) The following organisms were tested: Absidia corymbifera, Aspergillus flavus, Aspergillus fumigatus AF293 and AF210, Aspergillus niger, Aspergillus terreus AT4 and AT49, Candida albicans, Candida glabrata, Candida krusei, Candida parapsilosis, Candida tropicalis, Fusarium solani, Rhizomucor sp., Scedosporium apiospermum, Scedosporium prolificans, Trichophyton mentagrophytes, and Trichophyton rubrum.

[1] = tested on: Aspergillus fumigatus AF210; conditions: YAG medium, MIC banded into grades, AF210; for MIC: Aspergillus fumigatus, read-out: MIC A. fumigatus 210 (grade)
Description: as §1, §2, §3, §4, §5

[2] = tested on: Aspergillus fumigatus AF293; conditions: YAG medium, MIC banded into grades, AF293; for MIC: Aspergillus fumigatus, read-out: MIC A. fumigatus (grade)
Description: as §1, §2, §3, §4, §5

Aspergillus niger = conditions: YAG medium, MIC banded into grades; for MIC: Aspergillus niger, read-out: MIC A. niger (grade)
Description: as §1, §2, §3, §4, §5

Aspergillus terreus AT49 = conditions: YAG medium, MIC banded into grades, AT49; for MIC: Aspergillus terreus, read-out: MIC A. terreus 49 (grade)
Description: as §1, §2, §3, §4, §5

Aspergillus terreus AT4 = conditions: YAG medium, MIC banded into grades, AT4; for MIC: Aspergillus terreus, read-out: MIC A. terreus (grade)
Description: as §1, §2, §3, §4, §5

SMILES | MIC (Aspergillus flavus) [µg/mL] | MIC [1] [µg/mL] | MIC [2] [µg/mL] | MIC (Aspergillus niger) [µg/mL] | MIC (Aspergillus terreus AT49) [µg/mL] | MIC (Aspergillus terreus AT4) [µg/mL] | MIC A. flavus (grade) (Aspergillus flavus) | MIC A. fumigatus 210 (grade) [1] | MIC A. fumigatus (grade) [2] | MIC A. niger (grade) (Aspergillus niger) | MIC A. terreus 49 (grade) (Aspergillus terreus AT49) | MIC A. terreus (grade) (Aspergillus terreus AT4)
O=C(Nc1ccc(N2CCN(CCc3ccco3)CC2)cc1)C(=O)c1c(-c2ccccc2)cc2ccccn12 [Example 39, N-{4-[4-(2-Furan-2-yl-ethyl)-piperazin-1-yl]-phenyl}-2-oxo-2-(2-phenyl-indolizin-3-yl)-acetamide] | < 1 | < 1 | < 1 | < 1 | < 1 | < 1 | – | – | – | – | – | –
Cc1cc(C)nc(N(C)CCCN(C)c2ccc(NC(=O)C(=O)c3c(-c4ccccc4)cc4ccccn34)cc2)c1 [Example 67, N-[4-({3-[(4,6-dimethyl-pyridin-2-yl)-methyl-amino]-propyl}-methyl-amino)-phenyl]-2-oxo-2-(2-phenyl-indolizin-3-yl)-acetamide] | < 1 | < 1 | < 1 | < 1 | < 1 | < 1 | – | – | – | – | – | –
COCCOCCOc1cc(C)nc(N2CCN(c3ccc(NC(=O)C(=O)c4c(-c5ccccc5)cc5ccccn45)cc3)CC2)c1 [Example 76, N-[4-(4-{4-[2-(2-methoxy-ethoxy)-ethoxy]-6-methyl-pyridin-2-yl}-piperazin-1-yl)-phenyl]-2-oxo-2-(2-phenyl-indolizin-3-yl)-acetamide] | < 1 | < 1 | < 1 | < 1 | < 1 | < 1 | – | – | – | – | – | –
O=C(Nc1ccc(N2CCN(c3ccc(CN4CCOCC4)cc3)CC2)cc1)C(=O)c1c(-c2ccccc2)cc2ccccn12 [Example 56, N-{4-[4-(4-Morpholin-4-ylmethyl-phenyl)-piperazin-1-yl]-phenyl}-2-oxo-2-(2-phenyl-indolizin-3-yl)-acetamide] | < 1 | < 1 | < 1 | < 1 | < 1 | < 1 | – | – | – | – | – | –
Cc1nc(C(C)C)cn1C(C)(C)c1cccc(NC(=O)C(=O)c2c(-c3ccccc3)cc3ccccn23)c1 [Example 25] | – | – | – | – | – | – | 2 (A grade of 2 represents an MIC of from 1 to 10) | 1 (a grade of 1 represents an MIC of greater than 10 mg/L) | 1 (a grade of 1 represents an MIC of greater than 10 mg/L) | 1 (a grade of 1 represents an MIC of greater than 10 mg/L) | 2 (A grade of 2 represents an MIC of from 1 to 10) | 2 (A grade of 2 represents an MIC of from 1 to 10)

More lines, main results first:

MIC (Aspergillus flavus) [µg/mL] | MIC [1] [µg/mL] | MIC [2] [µg/mL] | MIC (Aspergillus niger) [µg/mL] | MIC (Aspergillus terreus AT49) [µg/mL] | MIC (Aspergillus terreus AT4) [µg/mL] | SMILES | MIC A. flavus (grade) (Aspergillus flavus) | MIC A. fumigatus 210 (grade) [1] | MIC A. fumigatus (grade) [2] | MIC A. niger (grade) (Aspergillus niger) | MIC A. terreus 49 (grade) (Aspergillus terreus AT49) | MIC A. terreus (grade) (Aspergillus terreus AT4)
< 1 | < 1 | < 1 | < 1 | < 1 | < 1 | CCC(CC)N1CCN(c2ccc(NC(=O)C(=O)c3c(-c4ccccc4Cl)cc4ccccn34)cn2)CC1 [Example 10, 2-[2-(2-chloro-phenyl)-indolizin-3-yl]-N-{6-[4-(1-ethyl-propyl)-piperazin-1-yl]-pyridin-3-yl}-2-oxo-acetamide] | – | – | – | – | – | –
< 1 | < 1 | < 1 | < 1 | < 1 | < 1 | Cc1cc(C)nc(NCCN(C)c2ccc(NC(=O)C(=O)c3c(-c4ccccc4)cc4ccccn34)cc2)c1 [Example 69, N-(4-{[2-(4,6-dimethyl-pyridin-2-ylamino)-ethyl]-methyl-amino}-phenyl)-2-oxo-2-(2-phenyl-indolizin-3-yl)-acetamide] | – | – | – | – | – | –
< 1 | < 1 | < 1 | < 1 | < 1 | < 1 | Cc1cc(C)nc(N(C)CCOc2ccc(NC(=O)C(=O)c3c(-c4ccccc4)cc4ccccn34)cc2)c1 [Example 64, N-(4-{2-[(4,6-Dimethyl-pyridin-2-yl)-methyl-amino]-ethoxy}-phenyl)-2-oxo-2-(2-phenyl-indolizin-3-yl)-acetamide] | – | – | – | – | – | –
